Measured values reported in article PMC11288027, “Exploring novel microbial metabolites and drugs for inhibiting Clostridioides difficile” (mSphere, 2024).
Converted amounts (≈) assume the structure as drawn. Counter-ions that a name gives are not always drawn. Like-named read-outs stand apart in the source and are kept apart here.

How the values were obtained:
Bif. adolescentis = experiment: MIC against human gut microbiota; type: cell-based, Bifidobacterium adolescentis; settings: Bif. adolescentis HM- 633, BHIS broth, anaerobic; for MIC: Bifidobacterium adolescentis, read-out: minimum inhibitory concentration (MIC)
[1] = tested on: C. difficile ATCC BAA-1870; experiment: MIC of active hits by broth microdilution; settings: C. difficile ATCC BAA-1870, 48 h anaerobic; for MIC: Clostridioides difficile, ATCCBAA1870, 48 h
L. rhamanosus = experiment: MIC against human gut microbiota; type: cell-based, Lactobacillus rhamnoosus; settings: L. rhamanosus ATCC-53103, MRS broth, 5% CO2; for MIC: Lactobacillus, ATCC53103, read-out: minimum inhibitory concentration (MIC)
E. fecalis = experiment: MIC against human gut microbiota; type: cell-based, Enterococcus faecalis; settings: E. fecalis HM-970, TSB, aerobic; for MIC: Enterococcus faecalis, read-out: minimum inhibitory concentration (MIC)
[2] = tested on: C. difficile clinical isolates; experiment: MIC against a panel of 20 C. difficile clinical isolates (broth microdilution); type: cell-based, Clostridioides difficile; settings: for MIC50: concentration that inhibited 50% of the 20 C. difficile clinical isolates; for MIC90: concentration that inhibited 90% of the 20 C. difficile clinical isolates; for MIC: read-out: minimum inhibitory concentration (MIC)
L. brevis = experiment: MIC against human gut microbiota; type: cell-based, Lactobacillus brevis; settings: L. brevis ATCC-14864, MRS broth, 5% CO2; for MIC: Levilactobacillus brevis, ATCC14864, read-out: minimum inhibitory concentration (MIC)
E. faecium = experiment: MIC against human gut microbiota; type: cell-based, Enterococcus faecium; settings: E. faecium HM-202, TSB, aerobic; for MIC: Enterococcus faecium, read-out: minimum inhibitory concentration (MIC)
B. fragilis = experiment: MIC against human gut microbiota; type: cell-based, Bacteroides fragilis; settings: anaerobic; for MIC: Bacteroides fragilis, read-out: minimum inhibitory concentration (MIC)
B. dorei = experiment: MIC against human gut microbiota; type: cell-based, Bacteroides dorei; settings: B. dorei HM- 719, BHIS broth, anaerobic; for MIC: Phocaeicola dorei, read-out: minimum inhibitory concentration (MIC)
Bif. angulatum = experiment: MIC against human gut microbiota; type: cell-based, Bifidobacterium angulatum; settings: Bif. angulatum HM- 1189, BHIS broth, anaerobic; for MIC: Bifidobacterium angulatum, read-out: minimum inhibitory concentration (MIC)
Bif. breve = experiment: MIC against human gut microbiota; type: cell-based, Bifidobacterium breve; settings: Bif. breve ATCC 15700, BHIS broth, anaerobic; for MIC: Bifidobacterium breve, ATCC15700, read-out: minimum inhibitory concentration (MIC)
Bif. longum = experiment: MIC against human gut microbiota; type: cell-based, Bifidobacterium longum; settings: anaerobic; for MIC: Bifidobacterium longum, read-out: minimum inhibitory concentration (MIC)
mycobacteria = tested on: mycobacteria; parameters: method as in PMID 33916775; settings: cited from earlier work
L. casei = experiment: MIC against human gut microbiota; type: cell-based; settings: L. casei ATCC 334, MRS broth, 5% CO2; for MIC: Lacticaseibacillus casei, ATCC334, read-out: minimum inhibitory concentration (MIC)
[3] = tested on: vancomycin-resistant enterococci (VRE); parameters: method as in PMID 26765953; settings: cited from earlier work
enterococcal species = experiment: MIC against human gut microbiota, summary in text; type: cell-based; settings: summary over the Enterococcus strains of Table 4
MRSA = tested on: MRSA; parameters: method as in PMID 26765953; settings: cited from earlier work
A. baumannii = tested on: A. baumannii; parameters: method as in PMID 31105656; settings: cited from earlier work
[4] = tested on: Acinetobacter calcoaceticus; parameters: method as in PMID 31105656; settings: cited from earlier work
Bifidobacterium species = experiment: MIC against human gut microbiota, summary in text; type: cell-based; settings: summary over the Bifidobacterium strains of Table 4
[5] = B. fragilis HM- 709, BHIS broth
[6] = B. fragilis HM- 718, BHIS broth
[7] = Bif. longum HM- 845, BHIS broth
[8] = Bif. longum HM- 846, BHIS broth
[9] = Bif. longum HM- 847, BHIS broth
[10] = Bif. longum HM- 848, BHIS broth
[11] = Clostridioides difficile, 48 h, read-out: MIC50
[12] = Clostridioides difficile, ATCC630, C. difficile ATCC 630
[13] = Clostridioides difficile, ATCC43255, C. difficile ATCC 43255
[14] = Clostridioides difficile, ATCCBAA1870, C. difficile ATCC BAA-1870 (Ribotype-027), purchased compounds, panel test
[15] = Clostridioides difficile, C. difficile CD-1 (Ribotype-027)
[16] = Clostridioides difficile, C. difficile CD-6 (Ribotype-027)
[17] = Clostridioides difficile, C. difficile CD-10(Ribotype-027)
[18] = Clostridioides difficile, C. difficile CD-12
[19] = Clostridioides difficile, C. difficile CD-13
[20] = Clostridioides difficile, C. difficile CD-15
[21] = Clostridioides difficile, C. difficile CD-22
[22] = Clostridioides difficile, C. difficile CD-23
[23] = Clostridioides difficile, C. difficile CD-24
[24] = Clostridioides difficile, C. difficile CD-26 (Ribotype-027)
[25] = Clostridioides difficile, C. difficile CD-28
[26] = Clostridioides difficile, C. difficile CD-29 (Ribotype-027)
[27] = Clostridioides difficile, C. difficile CD-30
[28] = Clostridioides difficile, C. difficile NR-49302
[29] = Clostridioides difficile, C. difficile NR-49304
[30] = Clostridioides difficile, C. difficile NR-49308
[31] = Clostridioides difficile, C. difficile NR-49319
[32] = Clostridioides difficile, read-out: MIC50
[33] = Clostridioides difficile, read-out: MIC90

Milbemycin oxime
minimum inhibitory concentration (MIC) (Bif. adolescentis): 4 µg/mL
MIC (μM) [1]: 4 µM
MIC (μg/mL) [1]: 4.39 µg/mL
minimum inhibitory concentration (MIC) (L. rhamanosus): >256 µg/mL
minimum inhibitory concentration (MIC) (E. fecalis): 8 µg/mL
minimum inhibitory concentration (MIC) ([2]; C. difficile ATCC 630): 4 µg/mL
minimum inhibitory concentration (MIC) ([2]; C. difficile ATCC 43255): 4 µg/mL
minimum inhibitory concentration (MIC) ([2]; C. difficile ATCC BAA-1870 (Ribotype-027), purchased compounds, panel test): 8 µg/mL
minimum inhibitory concentration (MIC) ([2]; C. difficile CD-1 (Ribotype-027)): 4 µg/mL
minimum inhibitory concentration (MIC) ([2]; C. difficile CD-6 (Ribotype-027)): 4 µg/mL
minimum inhibitory concentration (MIC) ([2]; C. difficile CD-10(Ribotype-027)): 4 µg/mL
minimum inhibitory concentration (MIC) ([2]; C. difficile CD-12): 4 µg/mL
minimum inhibitory concentration (MIC) ([2]; C. difficile CD-13): 8 µg/mL
minimum inhibitory concentration (MIC) ([2]; C. difficile CD-15): 4 µg/mL
minimum inhibitory concentration (MIC) ([2]; C. difficile CD-22): 8 µg/mL
minimum inhibitory concentration (MIC) ([2]; C. difficile CD-23): 4 µg/mL
minimum inhibitory concentration (MIC) ([2]; C. difficile CD-24): 4 µg/mL
minimum inhibitory concentration (MIC) ([2]; C. difficile CD-26 (Ribotype-027)): 4 µg/mL
minimum inhibitory concentration (MIC) ([2]; C. difficile CD-28): 8 µg/mL
minimum inhibitory concentration (MIC) ([2]; C. difficile CD-29 (Ribotype-027)): 4 µg/mL
minimum inhibitory concentration (MIC) ([2]; C. difficile CD-30): 4 µg/mL
minimum inhibitory concentration (MIC) ([2]; C. difficile NR-49302): 4 µg/mL
minimum inhibitory concentration (MIC) ([2]; C. difficile NR-49304): 8 µg/mL
minimum inhibitory concentration (MIC) ([2]; C. difficile NR-49308): 4 µg/mL
minimum inhibitory concentration (MIC) ([2]; C. difficile NR-49319): 8 µg/mL
MIC50 [2]: 4 µg/mL
MIC90 [2]: 8 µg/mL
minimum inhibitory concentration (MIC) (L. brevis): >256 µg/mL
minimum inhibitory concentration (MIC) (E. faecium): 4 µg/mL
minimum inhibitory concentration (MIC) (B. fragilis; [5]): 32 µg/mL
minimum inhibitory concentration (MIC) (B. fragilis; [6]): >256 µg/mL
minimum inhibitory concentration (MIC) (B. dorei): >256 µg/mL
minimum inhibitory concentration (MIC) (Bif. angulatum): 4 µg/mL
minimum inhibitory concentration (MIC) (Bif. breve): 4 µg/mL
minimum inhibitory concentration (MIC) (Bif. longum; [7]): 8 µg/mL
minimum inhibitory concentration (MIC) (Bif. longum; [8]): 8 µg/mL
minimum inhibitory concentration (MIC) (Bif. longum; [9]): 8 µg/mL
minimum inhibitory concentration (MIC) (Bif. longum; [10]): 8 µg/mL
MIC (antimycobacterial activity) (mycobacteria): < 8 µg/mL
minimum inhibitory concentration (MIC) (L. casei): >256 µg/mL

N=C(N/N=C/c1ccc(Cl)cc1)N/N=C/c1ccc(Cl)cc1 [Robenidine hydrochloride]
MIC (Bif. adolescentis): ≤ 2 µg/mL
MIC (μM) [1]: 8 µM
MIC [1]: 2.97 µg/mL
MIC (L. rhamanosus): 16 µg/mL
MIC [3]: 4.7 µM
MIC (E. fecalis): ≤ 2 µg/mL
MIC50 [2, 11]: 1 µg/mL
MIC [2, 12]: 1 µg/mL
MIC [2, 13]: 1 µg/mL
MIC [2, 14]: 2 µg/mL
MIC [2, 15]: 1 µg/mL
MIC [2, 16]: 1 µg/mL
MIC [2, 17]: 1 µg/mL
MIC [2, 18]: 1 µg/mL
MIC [2, 19]: 2 µg/mL
MIC [2, 20]: 2 µg/mL
MIC [2, 21]: 2 µg/mL
MIC [2, 22]: 1 µg/mL
MIC [2, 23]: 1 µg/mL
MIC [2, 24]: 1 µg/mL
MIC [2, 25]: 1 µg/mL
MIC [2, 26]: 1 µg/mL
MIC [2, 27]: 2 µg/mL
MIC [2, 28]: 1 µg/mL
MIC [2, 29]: 1 µg/mL
MIC [2, 30]: 1 µg/mL
MIC [2, 31]: 1 µg/mL
MIC50 [2, 32]: 1 µg/mL
MIC90 [2, 33]: 2 µg/mL
MIC (L. brevis): 8 µg/mL
MIC (E. faecium): ≤ 2 µg/mL
MIC (B. fragilis; [5]): ≤ 2 µg/mL
MIC (B. fragilis; [6]): ≤ 2 µg/mL
MIC (B. dorei): ≤ 2 µg/mL
MIC (Bif. angulatum): ≤ 2 µg/mL
MIC (Bif. breve): ≤ 2 µg/mL
MIC (Bif. longum; [7]): ≤ 2 µg/mL
MIC (Bif. longum; [8]): ≤ 2 µg/mL
MIC (Bif. longum; [9]): ≤ 2 µg/mL
MIC (Bif. longum; [10]): ≤ 2 µg/mL
MIC (enterococcal species): ≤ 2 µg/mL
MIC (MRSA): 8.1 µM
MIC (A. baumannii): 8 µg/mL
MIC (L. casei): 16 µg/mL
MIC [4]: 2 µg/mL

CCCCc1oc2ccc(NS(C)(=O)=O)cc2c1C(=O)c1ccc(OCCCN(CCCC)CCCC)cc1 [Dronedarone]
MIC (Bif. adolescentis): 8 µg/mL (≈ 14.4 µM)
MIC (μM) [1]: 8 µM
MIC [1]: 4.45 µg/mL
MIC (L. rhamanosus): 128 µg/mL (≈ 230 µM)
MIC (E. fecalis): 4 µg/mL (≈ 7.18 µM)
MIC50 [2, 11]: 4 µg/mL (≈ 7.18 µM)
MIC [2, 12]: 4 µg/mL (≈ 7.18 µM)
MIC [2, 13]: 4 µg/mL (≈ 7.18 µM)
MIC [2, 14]: 4 µg/mL (≈ 7.18 µM)
MIC [2, 15]: 4 µg/mL (≈ 7.18 µM)
MIC [2, 16]: 4 µg/mL (≈ 7.18 µM)
MIC [2, 17]: 4 µg/mL (≈ 7.18 µM)
MIC [2, 18]: 4 µg/mL (≈ 7.18 µM)
MIC [2, 19]: 4 µg/mL (≈ 7.18 µM)
MIC [2, 20]: 4 µg/mL (≈ 7.18 µM)
MIC [2, 21]: 2 µg/mL (≈ 3.59 µM)
MIC [2, 22]: 8 µg/mL (≈ 14.4 µM)
MIC [2, 23]: 2 µg/mL (≈ 3.59 µM)
MIC [2, 24]: 4 µg/mL (≈ 7.18 µM)
MIC [2, 25]: 8 µg/mL (≈ 14.4 µM)
MIC [2, 26]: 2 µg/mL (≈ 3.59 µM)
MIC [2, 27]: 8 µg/mL (≈ 14.4 µM)
MIC [2, 28]: 4 µg/mL (≈ 7.18 µM)
MIC [2, 29]: 2 µg/mL (≈ 3.59 µM)
MIC [2, 30]: 4 µg/mL (≈ 7.18 µM)
MIC [2, 31]: 8 µg/mL (≈ 14.4 µM)
MIC50 [2, 32]: 4 µg/mL (≈ 7.18 µM)
MIC90 [2, 33]: 8 µg/mL (≈ 14.4 µM)
MIC (L. brevis): 32 µg/mL (≈ 57.5 µM)
MIC (E. faecium): 8 µg/mL (≈ 14.4 µM)
MIC (B. fragilis; [5]): 8 µg/mL (≈ 14.4 µM)
MIC (B. fragilis; [6]): 8 µg/mL (≈ 14.4 µM)
MIC (B. dorei): 8 µg/mL (≈ 14.4 µM)
MIC (Bif. angulatum): 8 µg/mL (≈ 14.4 µM)
MIC (Bif. breve): 8 µg/mL (≈ 14.4 µM)
MIC (Bifidobacterium species): 2 to 8 µg/mL (≈ 3.59 to 14.4 µM)
MIC (Bif. longum; [7]): 8 µg/mL (≈ 14.4 µM)
MIC (Bif. longum; [8]): 8 µg/mL (≈ 14.4 µM)
MIC (Bif. longum; [9]): 8 µg/mL (≈ 14.4 µM)
MIC (Bif. longum; [10]): 8 µg/mL (≈ 14.4 µM)
MIC (L. casei): 64 µg/mL (≈ 115 µM)
